Measured values published in patent publication US10774102B2, “Galactoside inhibitor of galectins” (Galecto Biotech AB, priority 2015, dated 2020).

The molecules below were run against galectin-3 (Homo sapiens (Human), UniProt P17931) (assay: Fluorescence anisotropy assay of galectin-3 affinity (compound inhibits galectin binding to a fluorescein tagged saccharide probe)). Details: high affinity probe, 50 nM galectin-3, 100 nM albumin.
Sequence of galectin-3 (P17931 whole entry): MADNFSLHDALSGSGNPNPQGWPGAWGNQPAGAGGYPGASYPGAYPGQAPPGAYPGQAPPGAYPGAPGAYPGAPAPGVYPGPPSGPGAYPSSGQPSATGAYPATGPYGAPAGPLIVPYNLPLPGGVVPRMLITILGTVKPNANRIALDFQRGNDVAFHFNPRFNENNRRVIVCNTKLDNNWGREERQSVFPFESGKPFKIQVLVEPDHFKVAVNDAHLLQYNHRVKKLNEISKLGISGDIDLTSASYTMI
Protocol: 100 nM albumin was included as a carrier to prevent protein loss at such low concentration of galectin.
`OCC1O[C@H](SC2CCCC(F)(F)C2)C(O)[C@@H](n2cc(-c3cc(F)c(F)c(F)c3)nn2)[C@H]1O` (stereo partly drawn) [Example 76, 3,3′-difluoro-cyklohexyl 3-deoxy-3-[4-(3,4,5-trifluorophenyl)-1H-1,2,3-triazol-1-yl]-1-thio-α-D-galactopyranoside] was tested, and the Kd was 240 nM.
Molecule `OC[C@H]1O[C@H](Sc2ccccc2)[C@H](O)[C@@H](n2cc(-c3cc(F)c(F)c(F)c3)nn2)[C@H]1O` [Example 27, Phenyl 3-deoxy-3-[4-(3,4,5-trifluorophenyl)-1H-1,2,3-triazol-1-yl]-1-thio-α-D-galactopyranoside] has a Kd of 400 nM.
`OC[C@H]1O[C@H](Sc2cccc(Cl)c2Cl)[C@H](O)[C@@H](n2cc(-c3cc(F)c(F)c(F)c3)nn2)[C@H]1O` [Example 8, 2,3-Dichlorophenyl 3-deoxy-3-[4-(3,4,5-trifluorophenyl)-1H-1,2,3-triazol-1-yl]-1-thio-α-D-galactopyranoside] was tested, and the Kd was 530 nM.
With `[O-][S+](c1cccc(Br)c1)[C@H]1O[C@H](CO)[C@H](O)[C@H](n2cc(-c3cc(F)c(F)c(F)c3)nn2)[C@H]1O` (stereo partly drawn) [Example 39, 3-Bromophenyl 3-deoxy-3-[4-(3,4,5-trifluorophenyl)-1H-1,2,3-triazol-1-yl]-α-D-galactopyranosyl sulfoxide] the Kd was 23 nM.
With `CCOC(=O)c1cn([C@@H]2[C@@H](O)[C@@H](Sc3ccc(Cl)c(Cl)c3)O[C@H](CO)[C@@H]2O)nn1` [Example 97, 3,4-Dichlorophenyl 3-deoxy-3-[4-(ethoxycarbonyl)-1H-1,2,3-triazol-1-yl]-1-thio-α-D-galactopyranoside] the Kd was 3500 nM.
Work on `OC[C@H]1O[C@H](Sc2ccc(Br)cc2)[C@H](O)[C@@H](n2cc(-c3cc(F)c(F)c(F)c3)nn2)[C@H]1O` [Example 15, 4-Bromophenyl 3-deoxy-3-[4-(3,4,5-trifluorophenyl)-1H-1,2,3-triazol-1-yl]-1-thio-α-D-galactopyranoside] yielded a Kd of 520 nM.
`[O-][S+](c1cncc(Cl)c1)[C@H]1OC(CO)[C@H](O)[C@H](n2cc(-c3cc(F)c(F)c(F)c3)nn2)C1O` (single isomer, unassigned; isomer 1) [Example 93, 5-Chloropyridin-3-yl 3-deoxy-3-[4-(3,4,5-trifluorophenyl)-1H-1,2,3-triazol-1-yl]-α-D-galactopyranosyl sulfoxide, isomer 1] showed a Kd of 106 nM.
For `O=S(=O)(c1cncc(Br)c1)[C@H]1O[C@H](CO)[C@H](O)[C@H](n2cc(-c3cc(F)c(F)c(F)c3)nn2)[C@H]1O` [Example 92, 5-Bromopyridin-3-yl 3-deoxy-3-[4-(3,4,5-trifluorophenyl)-1H-1,2,3-triazol-1-yl]-α-D-galactopyranosyl sulfone], the Kd was 31 nM.
With `OC[C@H]1O[C@H](Sc2ccncc2)[C@H](O)[C@@H](n2cc(-c3cc(F)c(F)c(F)c3)nn2)[C@H]1O` [Example 4, 4-Pyridyl 3-deoxy-3-[4-(3,4,5-trifluorophenyl)-1H-1,2,3-triazol-1-yl]-1-thio-α-D-galactopyranoside] the Kd was 190 nM.
Work on `CCOc1cccc(S[C@H]2O[C@H](CO)[C@H](O)[C@H](n3cc(-c4cc(F)c(F)c(F)c4)nn3)[C@H]2O)c1` [Example 3, 3-Ethoxyphenyl 3-deoxy-3-[4-(3,4,5-trifluorophenyl)-1H-1,2,3-triazol-1-yl]-1-thio-α-D-galactopyranoside] yielded a Kd of 420 nM.
For `OC[C@H]1O[C@H](Sc2cccc(Cl)c2)[C@H](O)[C@@H](n2cc(-c3cc(F)c(F)c(F)c3)nn2)[C@H]1O` [Example 19, 3-Chlorophenyl 3-deoxy-3-[4-(3,4,5-trifluorophenyl)-1H-1,2,3-triazol-1-yl]-1-thio-α-D-galactopyranoside], the Kd was 49 nM.
Molecule `OC[C@H]1O[C@H](Sc2cc(Cl)c(Cl)cc2Cl)[C@H](O)[C@@H](n2cc(-c3cc(F)c(F)c(F)c3)nn2)[C@H]1O` [Example 36, 2,4,5-Trichlorophenyl 3-deoxy-3-[4-(3,4,5-trifluorophenyl)-1H-1,2,3-triazol-1-yl]-1-thio-α-D-galactopyranoside] has a Kd of 60 nM.
`O=c1oc2ccc(F)c(F)c2cc1CO[C@@H]1[C@@H](O)[C@@H](Sc2ccc(Cl)c(Cl)c2)O[C@H](CO)[C@@H]1O` [Example 99, 3,4-Dichlorophenyl 3-O-[(5,6-Difluoro-2-oxo-3-chromenyl)methyl]-1-thio-α-D-galactopyranoside] gave a Kd of 920 nM.
Work on `OCC1O[C@H](Sc2cccc3ccccc23)C(O)[C@@H](n2cc(-c3cc(F)c(F)c(F)c3)nn2)[C@H]1O` (stereo partly drawn) [Example 18, 1-Naphthyl 3-deoxy-1-thio-3-[4-(3,4,5-trifluorophenyl)-1H-1,2,3-triazol-1-yl]-1-thio-α-D-galactopyranoside] yielded a Kd of 960 nM.
Molecule `OC[C@H]1O[C@H](Sc2ccc(F)c(Br)c2)[C@H](O)[C@@H](n2cc(-c3cc(F)c(F)c(F)c3)nn2)[C@H]1O` [Example 60, 3-Bromo-4-fluorophenyl 3-deoxy-3-[4-(3,4,5-trifluorophenyl)-1H-1,2,3-triazol-1-yl]-1-thio-α-D-galactopyranoside] has a Kd of 24 nM.
`OCC1O[C@H](Sc2ccccn2)C(O)[C@@H](n2cc(-c3cc(F)c(F)c(F)c3)nn2)[C@H]1O` (stereo partly drawn) [Example 21, 2-Pyridyl 3-deoxy-3-[4-(3,4,5-trifluorophenyl-1H-1,2,3-triazol-1-yl]-)-1-thio-α-D-galactopyranoside] showed a Kd of 510 nM.
In the case of `OCC1O[C@H](SCc2ccccc2)C(O)[C@@H](n2cc(-c3cc(F)c(F)c(F)c3)nn2)[C@H]1O` (stereo partly drawn) [Example 10, Benzyl 3-deoxy-1-thio-3-[4-(3,4,5-trifluorophenyl)-1H-1,2,3-triazol-1-yl]-1-thio-α-D-galactopyranoside], the Kd is reported as 1130 nM.
With `OC[C@H]1O[C@H](Sc2cccc(O)c2)[C@H](O)[C@@H](n2cc(-c3cc(F)c(F)c(F)c3)nn2)[C@H]1O` [Example 38, 3-Hydroxy-phenyl 3-deoxy-3-[4-(3,4,5-trifluorophenyl)-1H-1,2,3-triazol-1-yl]-1-thio-α-D-galactopyranoside] the Kd was 490 nM.
Work on `OC[C@H]1O[C@H](Sc2cc(Cl)cc(Cl)c2)[C@H](O)[C@@H](n2cc(-c3cc(F)c(F)c(F)c3)nn2)[C@H]1O` [Example 16, 3,5-Dichlorophenyl 3-deoxy-3-[4-(3,4,5-trifluorophenyl)-1H-1,2,3-triazol-1-yl]-1-thio-α-D-galactopyranoside] yielded a Kd of 80 nM.
With `OC[C@H]1O[C@H](Sc2ccc(F)cc2)[C@H](O)[C@@H](n2cc(-c3cc(F)c(F)c(F)c3)nn2)[C@H]1O` [Example 30, 4-Fluorophenyl 3-deoxy-3-[4-(3,4,5-trifluorophenyl)-1H-1,2,3-triazol-1-yl]-1-thio-α-D-galactopyranoside] the Kd was 270 nM.
`OC[C@H]1O[C@H](Sc2ccc(OC(F)(F)F)cc2)[C@H](O)[C@@H](n2cc(-c3cc(F)c(F)c(F)c3)nn2)[C@H]1O` [Example 31, 4-Trifluoromethoxyphenyl 3-deoxy-3-[4-(3,4,5-trifluorophenyl)-1H-1,2,3-triazol-1-yl]-1-thio-α-D-galactopyranoside] was tested, and the Kd was 280 nM.
For `[O-][S+](c1cncc(Br)c1)[C@H]1O[C@H](CO)[C@H](O)[C@H](n2cc(-c3cc(F)c(F)c(F)c3)nn2)[C@H]1O` (single isomer, unassigned; isomer 2) [Example 91, 5-Bromopyridin-3-yl 3-deoxy-3-[4-(3,4,5-trifluorophenyl)-1H-1,2,3-triazol-1-yl]-α-D-galactopyranosyl sulfoxide, isomer 2], the Kd was 130 nM.
